Experimental data from the NIST ThermoML archive (doi:10.1016/j.fluid.2015.07.055).
± gives the expanded uncertainty stated by the source.

Tests used:
[1] = Crystal; DTA
[2] = Molar enthalpy of transition or fusion; conditions: Crystal; DSC

Normal melting temperature [1]: 142.0 ± 1.1 °C | Molar enthalpy of transition or fusion [2]: 7.2 ± 0.335 kcal/mol
Compound: CCC(C)(C)C(=O)O[C@H]1C[C@@H](C)C=C2C=C[C@H](C)[C@H](CC[C@@H]3C[C@@H](O)CC(=O)O3)[C@H]21 [(+)-Simvastatin]
